Assay results published in patent publication US20250281629A1, “COMPOSITIONS AND METHODS FOR ANTI-PHOSPHOCHOLINE ACTIVE IMMUNOTHERAPY” (Duke University, priority 2022, published 2025).
Where no end group is shown, it is not given here. C11H22NO6P = phosphorylcholine group attached via 2-methacryloyloxyethyl phosphorylcholine

Assays:
[1] = tested on: mouse anti-PC IgM monoclonal antibody (Clone: BH8); test: ELISA for measuring nanofiber epitope reactivity; format: binding; settings: nanofibers coated at 0.2 mM; PC-BSA positive control
Experimental: ELISA for Measuring Nanofiber Epitope Reactivity. The reactivity of PC conjugation methods was determined via binding of a mouse anti-PC IgM monoclonal antibody (Clone: BH8) (Sigma, MABF2084) to nanofibers. Nanofibers were diluted to 0.2 mM and coated onto 96-well plates at 4° C. overnight. PC-BSA (Biosearch Technologies, PC-1011-10) was coated at 20 μg/mL in 1×PBS overnight as a positive control, and PBS was used as a negative control. The next day, the plates were washed using 1×PBS with 0.05% Tween 20 (1×PBST) and then blocked with Superblock blocking buffer solution (Thermo Fisher, 37515) three times. This was followed by the addition anti-PC IgM which was serially diluted in 1% BSA in 1×PBST by 5-fold steps beginning from 1:100 (5 μg/mL) and allowed to incubate for 2 h at room temperature. Anti-PC IgM bound to nanofibers was then detected with HRP-conjugated goat anti-mouse IgM (Southern Biotech, 1021-05) and the absorbance values at 450 nm were measured.

C57BL/6 mice = test: Serum anti-PC antibody responses of immunized mice via ELISA (PC-BSA coated); format: in vivo, mouse
Experimental: Mice and Immunizations. Female C57BL/6 mice (Envigo) age 6-10 weeks were used to initiate experiments except for the Il10^−/− colitis study where female B6.129P2-Il10^tm1Cgn/J (The Jackson Laboratory) mice age 5-7 weeks were used. While female mice were used for most experiments, age-matched male C57BL/6 mice (Envigo) were used in a one cycle acute DSS colitis model to confirm efficacy across sexes. Mice were housed at Duke University. All experimental procedures were performed on protocols (A264-18-11 and A199-21-09) approved by the Duke University Institutional Animal Care and Use Committee (IACUC). For subcutaneous immunizations, anesthetized mice were injected once behind each shoulder with 50 μL of 2 mM peptide nanofiber solution or 1×PBS. For intraperitoneal immunizations, mice were injected with 100 μL of 2 mM peptide nanofiber solution or 1×PBS. Nanofiber immunizations with adjuvant contained 10 μg CpG (ODN 1826, IAX-200-002-3001, Innaxon). For injections of only CpG, 10 μg of CpG in 100 μL 1×PBS was used. Mice were typically given three immunizations, with the specific boosting schedules stated in each figure caption, usually at weeks 0, 2, and 4, as this was determined to produce robust antibody responses in a short time frame.
Detection of Anti-PC Antibody Responses via ELISA. Anti-PC antibody responses in serum collected from the submandibular vein in mice were measured using ELISA. Briefly, plates were coated with 20 μg/mL PC-BSA (Biosearch Technologies, PC-1011-10) in 1×PBS or just 1×PBS at 4° C. overnight. The next day, the plates were washed using 1×PBST (1×PBS with 0.05% Tween 20) and then blocked three times with Superblock blocking buffer solution (Thermo Fisher, 37515). Serum diluted from 1:10^2 to 1:10^5 in 1% BSA in 1×PBST was the added to the plate and allowed to incubate for 2 h at room temperature. Anti-PC IgG was detected using HRP-conjugated Fcγ fragment-specific goat anti-mouse IgG (Jackson Immuno Research, 15-035-071). IgG subclasses and IgM anti-PC antibodies were detected using Southern Biotech HRP-conjugated goat anti-mouse antibodies (IgG1, IgG2b, IgG2c, IgG3, & IgM: 5300-05B). Area under the curve (AUC) measurements were calculated using background-subtracted absorbance values at dilutions from 1:10^2 to 1:10^5. Antibody titers were defined using an absorbance cutoff above background of 0.2 OD, where titer 2 represents an OD value greater than 0.2 at 1:10^2 dilution and so on up to titer 5 at 1:10^5 dilution.

[2] = tested on: non-B1a B cells (CD19+CD5−); test: Nanofiber uptake in i.p. lavage cells, flow cytometry: non-B1a B cells; format: in vivo, mouse; settings: for non-B1a B cells that acquired nanofibers: 4 hours after i.p. injection of TAMRA-labeled nanofibers
Experimental: Nanofiber Uptake and Evaluation. The cell types present and their propensity to uptake nanofibers in the i.p. space was tested by injecting mice i.p. with 100 μL of 2 mM TAMRA-labeled fluorescent nanofibers. 4 hours later, mice were euthanized and i.p. lavage was conducted via the injection of 2 mL of cold 1×PBS into the peritoneal cavity and massaging the abdomen for 30 seconds. The solution was then carefully extracted from the i.p. space and the cells were isolated followed by rinsing with ice cold flow buffer (2% heat-inactivated FBS in 1×PBS). The cells present were treated with mouse BD Fc Block (Clone: 2.4G2) (BD Biosciences, 553142) in flow buffer on ice for 30 min and then washed and stained with antibodies against the following markers: CD5-APC (Clone: 53-7.3) (BioLegend, 100626), F4/80-PerCP/Cy5.5 (Clone: BM8) (BioLegend, 123128), CD19-APC/Cy7 (Clone: 6D5) (BioLegend, 115530), CD11c-PE/Cy7 (Clone: N418) (BioLegend, 117318), and CD86-BV605 (Clone: GL1) (BD Biosciences, 2272591) in flow buffer for 30 min on ice. TAMRA-fluorescence as an indication of nanofiber uptake was measured on the PE channel. Cells were then washed in flow buffer and stained with DAPI. Flow cytometry was conducted on a BD FACSCanto II cytometer and the results were analyzed using FlowJo software.

Substance | binding of anti-PC mAb to nanofibers [1] | anti-PC antibody levels on increasing epitope content 2.5 times (C57BL/6 mice; 0.5 mM (25%) vs 0.2 mM (10%) PCM-Q11, i.p. with CpG) | anti-PC IgG responses, PCM-Q11 vs PC-Q11 (C57BL/6 mice; i.p., weeks 0, 2, 4, both coassembled with PADRE-Q11) | non-B1a B cells that acquired nanofibers [2] | non-B1a B cells in the peritoneal cavity (total cells) ([2]; compared with PC-Q11, Q11, or PBS alone) | antibody response against PC-BSA (serum total anti-PC IgG) (C57BL/6 mice; s.c. or i.p., weeks 0, 3, 11, with PADRE-Q11, PC-Q11 vs pa-PC-Q11) | TAMRA MFI of non-B1a B cells ([2]; 4 hours after i.p. injection) | non-B1a B cells among total TAMRA+ cells ([2]; total TAMRA+ cells categorized by cell type)
(C11H22NO6P)n-CCCCSGSG-QQKFQFQFEQQ-NH2 (CCCCSGSGQQKFQFQFEQQ-NH2; not fully specified; cysteine pairing not given here; also: phosphorylcholine groups (C11H22NO6P) n=1-4, attachment not placed) [PCM-Q11, linear multi-PC conjugate] | increased binding of an anti-PC mAb compared to PC-Q11 nanofibers and PC-BSA | no significant change in the response elicited | significantly greater than i.p. immunization with PC-Q11 | < 30% | reduction in non-B1a B cells | – | – | –
C11H22NO6P-CSGSG-QQKFQFQFEQQ-NH2 (C(C11H22NO6P)SGSGQQKFQFQFEQQ-NH2) [PC-Q11, phosphodiester PC-Q11] | bound | – | – | over 80% | – | significantly greater antibody response | selective uptake | acquired primarily by non-B1a B cells
